Measured values as given in publication PMC8391104, “Molecular mechanism of Mad1 kinetochore targeting by phosphorylated Bub1” (EMBO Reports, 2021).
Residue numbers refer to the chain shown, from its start. Where a SMILES comes first, the peptide text is derived from it. [ ]: non-standard residue; d: D form. pT = C[C@@H](OP(=O)(O)O)[C@H](N)C(=O)O; pS = N[C@@H](COP(=O)(O)O)C(=O)O

Columns and labels:
Mad1^CTD R630A = target: T1, Mad1^CTD R630A (Homo sapiens, UniProt Q9Y6D9, R630A); test: ITC, Mad1^CTD R630A; format: binding; conditions: 20°C, pH 7.5, R630A, average of at least three experiments ± SD
T1 construct: human Mad1^CTD homodimer (residues 597–718); double Strep His6-tag with TEV site (N, cleaved yes); made in house; host or cells: E. coli Rosetta 2 (DE3)
T1 sequence (Q9Y6D9 597-718 R630A limits assumed): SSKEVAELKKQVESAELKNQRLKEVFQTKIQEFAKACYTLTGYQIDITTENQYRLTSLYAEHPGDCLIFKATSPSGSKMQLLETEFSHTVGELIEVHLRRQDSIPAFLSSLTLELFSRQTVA
From the text: (§1) The coding region of Mad1^597–719 was cloned by USER® (NEB) into a modified pRSFDuet‐1 vector (71341‐3, Sigma‐Aldrich) with an N‐terminal double Strep His6‐tag, followed by a tobacco etch virus (TEV) protease cleavage site (Demple & Linn, [1982]; Bitinaite et al, [1992]). Mad1 mutants were generated using the QuikChange™ Lightning Site‐Directed Mutagenesis Kit (Agilent), developed by Stratagene Inc. (La Jolla, CA) (Nøhr & Kristiansen, [2003]). Mad1 constructs were transformed into Rosetta™ 2 (DE3) Singles™ Competent Cells (71400, Novagen) for expression. Expression was induced with 0.5 mM IPTG and grown overnight at 18°C. Cells were lysed in 25 mM HEPES pH 8.1, 250 mM NaCl, 2 mM DTT, 5% glycerol, 2 mM EDTA supplemented with lysozyme, and Complete™ EDTA‐free protease inhibitors (Roche). Proteins were purified over a Strep‐Tactin Superflow Plus column (QIAGEN) and cleaved with TEV protease overnight at 4°C. The cleaved Mad1^CTD was then diluted to 50 mM NaCl, purified over an anion exchange (Resource Q, GE Healthcare) column, followed by size exclusion chromatography using a Superdex 75 Increase column (GE Healthcare). Mad1^CTD was concentrated to 35 mg/ml in a buffer of 20 mM HEPES pH 7.5, 100 mM NaCl and 1 mM TCEP.
(§2) Isothermal titration calorimetry (ITC) was performed using an Auto‐iTC200 instrument (Malvern Instruments, Malvern, UK) at 20°C. […]

Mad1^CTD K619A = target: T2, Mad1^CTD K619A (Homo sapiens, UniProt Q9Y6D9, K619A); test: ITC, Mad1^CTD K619A; format: binding; conditions: 20°C, pH 7.5, K619A, average of at least three experiments ± SD
T2 construct: human Mad1^CTD homodimer (residues 597–718); double Strep His6-tag with TEV site (N, cleaved yes); made in house; host or cells: E. coli Rosetta 2 (DE3)
T2 sequence (Q9Y6D9 597-718 K619A limits assumed): T1 sequence (Q9Y6D9 597-718 R630A limits assumed) with K23A, A34R
From the text: as §1, §2

[1] = target: T3, Mad1^CTD QRRI** (Q627A, R650A, I643A, R630A) (Homo sapiens, UniProt Q9Y6D9, I643A/Q627A/R630A/R650A); test: ITC, Mad1^CTD QRRI** quadruple mutant; format: binding; conditions: 20°C, pH 7.5, QRRI**, average of at least three experiments ± SD
T3 construct: human Mad1^CTD homodimer (residues 597–718); double Strep His6-tag with TEV site (N, cleaved yes); made in house; host or cells: E. coli Rosetta 2 (DE3)
T3 sequence (Q9Y6D9 597-718 Q627A/R630A/I643A/R650A limits assumed): T1 sequence (Q9Y6D9 597-718 R630A limits assumed) with Q31A, I47A, R54A
From the text: as §1, §2

Mad1^CTD Q627A = target: T4, Mad1^CTD Q627A (Homo sapiens, UniProt Q9Y6D9, Q627A); test: ITC, Mad1^CTD Q627A; format: binding; conditions: 20°C, pH 7.5, Q627A, average of at least three experiments ± SD
T4 construct: human Mad1^CTD homodimer (residues 597–718); double Strep His6-tag with TEV site (N, cleaved yes); made in house; host or cells: E. coli Rosetta 2 (DE3)
T4 sequence (Q9Y6D9 597-718 Q627A limits assumed): T1 sequence (Q9Y6D9 597-718 R630A limits assumed) with Q31A, A34R
From the text: as §1, §2

[2] = target: T5, human Mad1^CTD (WT) homodimer (Homo sapiens, UniProt Q9Y6D9); test: ITC of Bub1^CD1 peptides binding to wild-type Mad1^CTD; conditions: for binding to Mad1^CTD by ITC, in words: pH 7.5, Mad1^CTD WT
T5 construct: human Mad1^CTD homodimer (residues 597–718); double Strep His6-tag with TEV site (N, cleaved yes); made in house; host or cells: E. coli Rosetta 2 (DE3)
T5 sequence (Q9Y6D9 597-718): T1 sequence (Q9Y6D9 597-718 R630A limits assumed) with A34R
From the text: as §1
Bub1^CD1 peptides were ordered from Designer Bioscience UK, at 95% purity. The full peptide sequence used in this study was (W)KVQP{pS}P{pT}VHTKEALGFIMNMFQAPTS. (W) = peptide with an additional N‐terminal tryptophan was used to confirm peptide concentration in stoichiometry studies.
Isothermal titration calorimetry (ITC) was performed using an Auto‐iTC200 instrument (Malvern Instruments, Malvern, UK) at 20°C. Mad1^CTD and Bub1^CD1 peptide mutants were dialysed into 20 mM HEPES pH 7.5, 100 mM NaCl, 1 mM TCEP. For each titration between 30–100 µM of Mad1 was pipetted into the calorimeter cell. The Bub1^CD1 peptides at 0.3–1.5 mM were titrated into the cell consisting of one 0.5 µl injection followed by 19 injections of 2 µl each. The changes in the heat released were integrated over the entire titration and fitted to a single‐site binding model using the MicroCal PEAQ‐ITC Analysis Software 1.0.0.1258 (Malvern Instruments). Titrations were performed in triplicate. Calculations for stoichiometry were based on the molar concentrations of dimeric Mad1^CTD.

Peptide solubility = format: physicochemical; conditions: Hepes buffer, aqueous buffer; 20 mM Hepes, pH 7.5, 100 mM NaCl, 1 mM TCEP, without DMSO; read-out: solubility
Procedure: Our ITC and sedimentation equilibrium experiments to measure the stoichiometry of the Mad1^CTD‐Bub1^CD1 interaction were performed with concentrations of Mad1 at 100 µM or lower, and titrating Bub1 until a twofold‐fourfold molar excess was obtained. However, our ^31P NMR experiments were conducted with around 0.25 to 0.5 mM of each, and still only one binding event was detected. […] DMSO interfered with ITC enthalpy changes and the NMR signal from DMSO obscured the protein peaks. In contrast, our Mad1^CTD‐Bub1^CD1 crystal structure was obtained through co‐crystallization of Mad1^CTD at a final concentration of 0.35 mM and Bub1^CD1 at 2.5 mM in 5% DMSO. The use of millimolar concentrations of peptide, and the presence of DMSO and isopropanol, required for Mad1^CTD‐Bub1^CD1 crystallization, may explain the association of a second peptide in the crystallized complex. […]
which are affected are already mapped out in Fig 5B, and this can be tracked across Bub1CD1 […]
We thank the reviewer for their positive and constructive comments.
1) On page 2, the first line of the third paragraph, Msp1 should be Mps1.
Response: Thank you, we have corrected this error.
2) Please provide a figure to show the omit map (2Fo−Fc map) for the BUB1 CD1 peptide.
Response: We have created a 2Fo-Fc omit map and included it in Fig EV2D and updated the figure legend accordingly. […]
2) p. 5, near bottom. The authors state that the singly phosphorylated Bub1 peptide (on Thr-461) is less soluble than the double phosphorylated peptide (also phosphorylated on Ser-459), which may explain previous reports that P-Ser-459 contributes to binding Mad1-CTD. It would be helpful if the authors could quantify this reduced solubility.
Response: We realise that our comment on the reduced solubility of the singly phosphorylated pT461 peptide is likely confusing, so we have removed this comment.
In terms of quantifying the reduced solubility, we observed an approximately 2-fold reduction of the solubility of the singly phosphorylated peptide. […]

Mad1^CTD K614A = target: T6, Mad1^CTD K614A (Homo sapiens, UniProt Q9Y6D9, K614A); test: ITC, Mad1^CTD K614A; format: binding; conditions: 20°C, pH 7.5, K614A, average of at least three experiments ± SD
T6 construct: human Mad1^CTD homodimer (residues 597–718); double Strep His6-tag with TEV site (N, cleaved yes); made in house; host or cells: E. coli Rosetta 2 (DE3)
T6 sequence (Q9Y6D9 597-718 K614A limits assumed): T1 sequence (Q9Y6D9 597-718 R630A limits assumed) with K18A, A34R
From the text: as §1, §2

[3] = 1H 1D NMR of free Bub1^CD1 peptides (conformation); format: physicochemical; conditions: narrow dispersion of amide peaks, not bound to Mad1
Procedure: ^1H‐detected experiments were performed on 600 and 800 MHz Avance III spectrometers, both equipped with triple resonance TCI CryoProbes (Bruker). ^31P 1D NMR spectra were recorded on a 500 MHz Avance II spectrometer equipped with a broadband BBO cryoprobe (Bruker). All spectra were collected in 50 mM HEPES, pH 7.0, 100 mM NaCl, 2 mM TCEP, 0.02% NaN3 at 298K. Standard ^2H decoupled TROSY‐based triple resonance experiments were used for backbone resonance assignments: HNCO, HN(CA)CO, HNCA, HN(CO)CA, HNCACB, HN(CO)CACB and HN(COCA)NNH (Pervushin, [2020]). Backbone datasets were collected with 20–25% non‐uniform sampling and reconstructed using compressed sensing in MddNMR (Mayzel et al, [2014]). Topspin 3.6 (Bruker) was used for processing and NMRFAM‐Sparky 1.47 for data analysis (Lee et al, [2015]). Backbone assignments were obtained in Mars (Jung & Zweckstetter, [2004]). Secondary chemical shifts were calculated from the differences between observed Cα/Cβ chemical shifts and Cα/Cβ chemical shifts for random coils (Kjaergaard & Poulsen, [2011]). […]

15N-labelled Mad1^CTD = test: NMR titration (1H,15N HSQC) of Bub1^CD1 peptides into 15N-labelled Mad1^CTD; format: binding, human; conditions: 298K, 50 mM HEPES pH 7.0, 100 mM NaCl, 2 mM TCEP, 0.02% NaN3
Procedure: Isotopically labelled Mad1^CTD was expressed in M9 minimal media (6 g/l Na2HPO4, 3 g/l KH2PO4, 0.5 g/l NaCl) supplemented with 1.7 g/l yeast nitrogen base without NH4Cl and amino acids (Sigma Y1251). 1 g/l ^15NH4Cl and 4 g/l unlabelled glucose were supplemented for ^15N labelling. For the deuteration of nonlabile sidechain protons, cells were adapted for growth in 10, 44 and 78% deuterated media on agar plates before they were grown in large cultures supplemented with 1 g/l ^15NH4Cl and 4 g/l ^2H^13C‐glucose in 99% D2O (Sigma). Prior to NMR experiments, isotopically labelled Mad1^CTD and Bub1^CD1 peptide were dialysed into 25 mM HEPES, pH 7.0, 100 mM NaCl, 1 mM TCEP.
^1H‐detected experiments were performed on 600 and 800 MHz Avance III spectrometers, both equipped with triple resonance TCI CryoProbes (Bruker). ^31P 1D NMR spectra were recorded on a 500 MHz Avance II spectrometer equipped with a broadband BBO cryoprobe (Bruker). All spectra were collected in 50 mM HEPES, pH 7.0, 100 mM NaCl, 2 mM TCEP, 0.02% NaN3 at 298K. […] Secondary chemical shifts were calculated from the differences between observed Cα/Cβ chemical shifts and Cα/Cβ chemical shifts for random coils (Kjaergaard & Poulsen, [2011]). […]

[4] = set-up: method as in Zhang et al, 2017; conditions: ref Zhang et al, 2017; cited from earlier work

Compound	Kd (Mad1^CTD R630A) [µM]	Kd (Mad1^CTD K619A) [µM]	Kd [1] [µM]	Kd (Mad1^CTD Q627A) [µM]	Kd ([2]; 20°C, 20 mM HEPES pH 7.5, 100 mM NaCl, 1 mM TCEP, 30–100 µM Mad1 in cell, 0.3–1.5 mM peptide, single-site model, average of at least three experiments ± SD) [µM]	KD at lowered peptide concentration ([2]; lowered concentration of doubly phosphorylated peptide (usual: 100 µM Mad1CTD, 1 mM peptide))	solubility (Peptide solubility) [µM]	Kd (Mad1^CTD K614A) [µM]	binding to Mad1^CTD by ITC, in words ([2]; 20°C)	binding to Mad1^CTD by ITC, in words ([2]; 20°C, listed as unphosphorylated Bub1^CD1 peptide)	conformation of free peptide, in words [3]	binding by NMR titration, in words (15N-labelled Mad1^CTD)	conformation of unbound peptide by circular dichroism, in words [4]
CC[C@H](C)[C@H](NC(=O)[C@H](Cc1ccccc1)NC(=O)CNC(=O)[C@H](CC(C)C)NC(=O)[C@H](C)NC(=O)[C@H](CCC(=O)O)NC(=O)[C@H](CCCCN)NC(=O)[C@@H](NC(=O)[C@H](Cc1c[nH]cn1)NC(=O)[C@@H](NC(=O)[C@@H](NC(=O)[C@@H]1CCCN1C(=O)[C@H](COP(=O)(O)O)NC(=O)[C@@H]1CCCN1C(=O)[C@H](CCC(N)=O)NC(=O)[C@@H](NC(=O)[C@@H](N)CCCCN)C(C)C)[C@@H](C)OP(=O)(O)O)C(C)C)[C@@H](C)O)C(=O)N[C@@H](CCSC)C(=O)N[C@@H](CC(N)=O)C(=O)N[C@@H](CCSC)C(=O)N[C@@H](Cc1ccccc1)C(=O)N[C@@H](CCC(N)=O)C(=O)N[C@@H](C)C(=O)N1CCC[C@H]1C(=O)N[C@H](C(=O)N[C@@H](CO)C(=O)O)[C@@H](C)O [pSpT CD1] (H-KVQP[pS]P[pT]VHTKEALGFIMNMFQAPTS-OH)	10.1 ± 1.3	10.1 ± 5.4	24.9 ± 1.3	2.4 ± 0.4	2.7 ± 1.2	same KD	≥ 1500	2.4 ± 0.43	–	–	–	–	–
CD1: non‐phosphorylated Bub1^CD1 peptide (KVQPSPTVHTKEALGFIMNMFQAPTS; phosphoserine at 459, phosphothreonine at 461)	–	–	–	–	–	–	–	–	no binding	complete absence of interactions	unstructured when not bound to Mad1	failed to reveal Bub1‐Mad1 interactions	unstructured but might have helical propensity that is increased with Thr461 phosphorylation
